Measured values: publication PMC6049614 (Chemical Communications (Cambridge, England), 2018)
Where a SMILES comes first, the peptide text is derived from it. Bridges are numbered along the chain shown (N, C = ends). [ ]: non-standard residue; d: D form. Mpa = O=C(O)CCS

Legend:
Type in all cases: binding
human OTR = biological target: T1, human OTR (Homo sapiens, UniProt P30559); assay: Scintillation proximity assay, displacement of [3H]OT from human OTR; conditions: for Ki: human OTR
T1 construct: expressed in transfected cells
T1 sequence (P30559 1-389): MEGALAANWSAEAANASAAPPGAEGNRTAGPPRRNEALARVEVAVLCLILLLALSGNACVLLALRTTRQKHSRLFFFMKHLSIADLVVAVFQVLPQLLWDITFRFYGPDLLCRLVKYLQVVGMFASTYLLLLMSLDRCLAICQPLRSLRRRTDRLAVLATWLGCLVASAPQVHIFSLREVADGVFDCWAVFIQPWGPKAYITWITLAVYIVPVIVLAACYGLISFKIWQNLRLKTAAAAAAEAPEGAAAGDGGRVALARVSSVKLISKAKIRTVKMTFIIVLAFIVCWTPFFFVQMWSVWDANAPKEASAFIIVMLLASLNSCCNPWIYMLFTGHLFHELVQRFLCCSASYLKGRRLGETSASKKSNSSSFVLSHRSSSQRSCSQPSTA
Text: (§1) OT analogues were screened in scintillation proximity assays that displace [^3H]OT or [^3H]AVP from the corresponding receptors. […]
(§2) All RCYs reported are decay corrected to the time of 18F delivery. The protocols for performing
(§3) receptor radioligand binding and potency studies on transfected cells to determine affinity

human V1a receptors = biological target: T2, human V1a receptors (Homo sapiens, UniProt P37288); assay: Scintillation proximity assay, displacement of [3H]AVP from human V1a receptor
T2 construct: expressed in transfected cells
Text: as §1, §2, §3

[1] = biological target: T3, human vasopressin receptor V2 (Homo sapiens, UniProt P30518); assay: Scintillation proximity assay, displacement of [3H]AVP from human V2 receptor
T3 construct: expressed in transfected cells
Text: as §1, §2, §3

T2 sequence (P37288 whole entry): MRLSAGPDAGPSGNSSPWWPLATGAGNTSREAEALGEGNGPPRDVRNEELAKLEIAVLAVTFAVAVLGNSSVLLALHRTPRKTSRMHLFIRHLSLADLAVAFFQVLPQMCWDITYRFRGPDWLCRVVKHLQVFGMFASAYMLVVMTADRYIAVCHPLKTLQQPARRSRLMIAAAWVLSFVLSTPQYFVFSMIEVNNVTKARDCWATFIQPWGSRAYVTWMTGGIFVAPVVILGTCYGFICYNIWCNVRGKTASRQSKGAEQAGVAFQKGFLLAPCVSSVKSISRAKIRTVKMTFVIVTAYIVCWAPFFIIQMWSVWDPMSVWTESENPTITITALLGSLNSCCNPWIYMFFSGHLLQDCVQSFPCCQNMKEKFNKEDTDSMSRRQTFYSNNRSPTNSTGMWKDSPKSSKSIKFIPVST
T3 sequence (P30518 whole entry): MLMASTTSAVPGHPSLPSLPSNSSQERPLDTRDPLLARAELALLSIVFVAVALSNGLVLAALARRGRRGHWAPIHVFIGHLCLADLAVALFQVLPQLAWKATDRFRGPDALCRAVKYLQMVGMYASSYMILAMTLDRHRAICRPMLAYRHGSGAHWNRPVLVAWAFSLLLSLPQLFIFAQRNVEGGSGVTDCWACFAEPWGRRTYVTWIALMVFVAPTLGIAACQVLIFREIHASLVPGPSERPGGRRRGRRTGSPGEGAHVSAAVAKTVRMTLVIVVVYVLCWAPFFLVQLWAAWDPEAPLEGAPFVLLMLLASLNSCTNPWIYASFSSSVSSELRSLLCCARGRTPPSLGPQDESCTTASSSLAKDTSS

Row | Ki (human OTR) | Ki (human V1a receptors) | Ki [1] | selectivity towards OTR (human OTR; OTR over V1a, from Ki values of Table 1) | SMILES
1 | 6.3 ± 3.6 nM | 31 ± 9 nM | 5820 ± 1700 nM | – | CC[C@H](C)[C@H](NC(=O)[C@H](Cc1ccc(O)cc1)NC(=O)CCS)C(=O)N[C@@H](CCC(N)=O)C(=O)N[C@@H](CC(N)=O)C(=O)N[C@@H](CS)C(=O)N1CCC[C@H]1C(=O)N[C@@H](CCCCN)C(=O)NCC(N)=O [dLVToc] ([Mpa]YIQNCPKG-NH2)
2 | 1.6 ± 1.3 nM | 388 ± 157 nM | – | – | CC[C@H](C)[C@@H]1NC(=O)[C@H](Cc2ccc(O)cc2)NC(=O)CCSSC[C@@H](C(=O)N2CCC[C@H]2C(=O)N[C@@H](CC(C)C)C(=O)NCC(N)=O)NC(=O)[C@H](CC(N)=O)NC(=O)[C@H](CCC(N)=O)NC1=O [dOTc]
3 | 1.2 ± 0.9 nM | 362 ± 124 nM | – | – | CC[C@H](C)[C@H](NC(=O)[C@H](Cc1ccc(O)cc1)NC(=O)CCS)C(=O)N[C@@H](CCC(N)=O)C(=O)N[C@@H](CC(N)=O)C(=O)N[C@@H](CS)C(=O)N1CCC[C@H]1C(=O)N[C@@H](CC(C)C)C(=O)NCC(N)=O [dOToc]
4 | 3.4 ± 1 nM | 24 ± 5 nM | 4840 ± 1670 nM | ~7 fold | CC[C@H](C)[C@@H]1NC(=O)[C@H](Cc2ccc(O)cc2)NC(=O)CCSSC[C@@H](C(=O)N2CCC[C@H]2C(=O)N[C@@H](CCCCN)C(=O)NCC(N)=O)NC(=O)[C@H](CC(N)=O)NC(=O)[C@H](CCC(N)=O)NC1=O [dLVTc, reference compound] ([Mpa]YIQNCPKG-NH2; disulfide 1-6)
